Measurements: patent publication US7589063B2, “Molecules which promote hematopoiesis” (Aplagen GmbH, priority 2004, dated 2009)

Tested on: TF-1 cells
Test: Proliferation assay with TF-1 cells by MTT
Format: cell-based
Conditions: MTT-assay data, dose-response fitted with GraphPad
Description: TF-1 Cells in logarithmic growth phase (˜2×10^5−1×10^6 cells/ml; RPMI medium; 20% fetal calf serum; supplemented with Penicillin, streptomycin, L-Glutamine; 0.5 ng/ml Interleukin 3) are washed (centrifuge 5 min. 1500 rpm and resuspend in RPMI complete without IL3 at 500,000 cells/ml) and pre-cultured before start of the assay for 24 h without IL-3. At the next day the cells are seeded in 24- or 96-well plates usually using at least 6 concentrations and 4 wells per concentration containing at least 10,000 cells/well per agent to be tested. Each experiment includes controls comprising recombinant EPO as a positive control agent and wells without addition of cytokine as negative control agent. Peptides and EPO-controls are prediluted in medium to the desired concentrations and added to the cells, starting a culture period of 3 days under standard culture conditions (37° C., 5% carbon dioxide in the gas phase, atmosphere saturated with water). […]
At day 4, prior to start of the analysis, a dilution series of a known number of TF-1 cells is prepared in a number of wells (0/2500/5000/10000/20000/50000 cells/well in 100 μl medium). These wells are treated in the same way as the test wells and later provide a calibration curve from which cell numbers can be determined. […] 25 μl of 10% sodium dodecylsulfate in water are added to each well prior to measurement E492 in an ELISA Reader.

Sequence: GGTYSCHFGGLTWVCKPQGG [SEQ. ID NO. 12]
- EC50 values: no activity detectable
